In patent US20150165029A1, “THERAPEUTIC COMPOSITIONS” (CUBIST PHARMACEUTICALS, INC., priority 2005, published 2015):
Read-outs that look alike come from different tables or passages of the source.

Tests used:
[1] = Rat intraduodenal capsule model, % bioavailability; conditions: for Drug plus enhancer % BA: 4:1 (enhancer:drug), ceftriaxone/carrageenan complex+Laureth-12, daptomycin carrageenan complex+Ceteth-15, CMPD 1+Ceteth-15, cidofovir, meropenem, caspofungin+Ceteth-12; for bioavailability: male, Sprague Dawley, rat, plasma
Method: (§1) Male Sprague Dawley rats weighing approximately 250 g with free access to water were fasted overnight. These rats were anesthetized with 40 mg/kg pentobarbital via jugular vein catheter. The small intestine was exposed by a ventral midline incision. A small incision was made into the duodenum and a #9el capsule was inserted into the lumen of the small intestine. The duodenum and the midline incisions were sutured closed. The rats regained consciousness in 30-90 minutes. Blood samples were taken from the jugular vein catheter at 0, 15, 30 and 60 minutes and 2, 3, 4 and 6 hours. Food was returned at 1 hour post surgery. Blood samples were collected in heparinized tubes and subsequently centrifuged. The plasma was stored at −20 C in heparinized tubes. The rats regained consciousness in 30-90 minutes. After the 6 hr blood sample, the rat was euthanized and a necropsy was performed to determine accuracy and integrity of the surgery. The duodenum was examined for blockage, leakage and any evidence of inflammation or irritation at the site of the capsule implantation.

[2] = rat, in vivo
Method: as §1

[3] = rat, in vivo; cited from earlier work
[4] = Rat intraduodenal capsule model, Cmax with different enhancers (Example 6); conditions: ID in rats, Cmax normalized to 40 mg/Kg
Method: Male Sprague Dawley rats weighing approximately 250 g with free access to water were fasted overnight. These rats were anesthetized with 40 mg/kg pentobarbital via jugular vein catheter. The small intestine was exposed by a ventral midline incision. A small incision was made into the duodenum and a #9el capsule was inserted into the lumen of the small intestine. The duodenum and the midline incisions were sutured closed. The rats regained consciousness in 30-90 minutes. Blood samples were taken from the jugular vein catheter at 0, 15, 30 and 60 minutes and 2, 3, 4 and 6 hours. Food was returned at 1 hour post surgery. Blood samples were collected in heparinized tubes and subsequently centrifuged. The plasma was stored at −20 C in heparinized tubes. […] After the 6 hr blood sample, the rat was euthanized and a necropsy was performed to determine accuracy and integrity of the surgery. The duodenum was examined for blockage, leakage and any evidence of inflammation or irritation at the site of the capsule implantation.
In each instance, the compositions were administered ID in 3 rats, unless otherwise indicated.

[5] = without any absorption enhancer; cited from earlier work

Row | Drug plus enhancer % BA ([1]; ID, rats) | bioavailability [1] [%] | % bioavailability [2] | Compound | also measured
1 | – | – | – | CCCCCCCCCC(=O)N[C@@H](Cc1c[nH]c2ccccc12)C(=O)N[C@H](CC(N)=O)C(=O)N[C@@H](CC(=O)O)C(=O)N[C@@H]1C(=O)NCC(=O)N[C@@H](CCCN)C(=O)N[C@@H](CC(=O)O)C(=O)N[C@H](C)C(=O)N[C@@H](CC(=O)O)C(=O)NCC(=O)N[C@H](CO)C(=O)N[C@@H]([C@H](C)CC(=O)O)C(=O)N[C@@H](CC(=O)c2ccccc2N)C(=O)O[C@@H]1C [Daptomycin, daptomycin, reference compound] | Drug plus enhancer % BA [2]: 44^2%; oral bioavailability of drug only (footnote) [3]: poor oral bioavailability
2 | 30% | – | – | CN(/N=C/C1=C(C(=O)O)N2C(=O)C(NC(=O)/C(=N\OCF)c3nsc(N)n3)[C@H]2SC1)C(=N)N1CCNCC1 (stereo partly shown) [CMPD 1, 7-(((5-amino-1,2,4-thiadiazol-3-yl)-(Z)-(fluoromethoxyimino)acetyl)amino)-3(E)-((imino-1-piperazinylmethyl)-methylhydrazono)methyl-3-cephem-4-carboxylic acid] | Cmax Mean (±SD) ([4]; enhancer Capmul C10, enhancer:drug 4:1): 7 (7) μg/mL; Cmax Mean (±SD) ([4]; enhancer Gelmul 90, enhancer:drug 4:1): 13 (8) μg/mL; Cmax Mean (±SD) ([4]; enhancer Laureth-12, enhancer:drug 4:1): 22 (4) μg/mL; Cmax Mean (±SD) ([4]; enhancer Sodium Laurate, enhancer:drug 4:1): 7 (1) μg/mL
3 | – | – | 60 (19) % | Laureth-9 | –
4 | 44% | 2 | – | Nc1ccn(C[C@@H](CO)OCP(=O)(O)O)c(=O)n1 [Cidofovir, cidofovir] | –
5 | 28% | 1 | – | C[C@@H](O)[C@H]1C(=O)N2C(C(=O)O)=C(S[C@@H]3CN[C@H](C(=O)N(C)C)C3)[C@H](C)[C@H]12 [Meropenem, meropenem] | –
6 | 83^2% | – | – | CO/N=C(\C(=O)N[C@@H]1C(=O)N2C(C(=O)O)=C(CSc3nc(=O)c(=O)[nH]n3C)CS[C@H]12)c1csc(N)n1 [Ceftriaxone, ceftriaxone] | oral bioavailability [5]: 0-5%; Drug only % BA ([1]; without POE alkyl ether enhancer, ID, rats): 2%
7 | – | – | 10 (4) % | Laureth-23 | –
8 | – | – | 7 (5) % | Beheneth-20 | –

Row | Compound | Drug plus enhancer % BA ([1]; ID, rats) | bioavailability [1] [%] | % bioavailability [2] | also measured
9 | CC[C@H](C)C[C@H](C)CCCCCCCCC(=O)N[C@H]1C[C@@H](O)[C@@H](NCCN)NC(=O)[C@@H]2[C@@H](O)CCN2C(=O)[C@H]([C@H](O)CCN)NC(=O)[C@H]([C@H](O)[C@@H](O)c2ccc(O)cc2)NC(=O)[C@@H]2C[C@@H](O)CN2C(=O)[C@H]([C@@H](C)O)NC1=O [Caspofungin, caspofungin] | <5% | < 1 | – | –
